This note sets out measurements from US20090286839A1, “PHYTONUTRIENT COMPOSITIONS FROM MUSHROOMS OR FILAMENTOUS FUNGI AND METHODS OF USE” (priority 2006, published 2009).

A short description of data set [1]: Hydroxyl radical averting capacity (HORAC) assay. It is filed as biochemical. To be noted: pure ERG. An excerpt:
The HORAC assay was based on a previously reported method, however caffeic acid (CA) was used as the standard due to CA providing a wider linear range as compared to gallic acid. All data was expressed as micromoles of caffeic acid equivalents (CAE) equivalents per gram of dry weight (μmol CAE/g dw). The freeze-dried forms of the mushrooms were used for testing and the data was reported as dry weight. When reporting amount per serving, the data was converted to a fresh weight basis according to the dry weight of the fresh mushroom samples. For each analysis, triplicate extractions were performed from one crop and used for analysis.
HO. radicals are highly reactive and can be generated via the Fenton reaction. Due to the fact that HO. radicals are short lived with a high rate constant, it is unlikely that antioxidants present at biological concentrations will be able to scavenge the HO radical. However antioxidants, which are able to act as metal chelators, may be able to prevent the formation of the HO. radical, thus acting as a preventative antioxidant. The HORAC assays measures the ability of the antioxidant present to chelate Co(II) prior to the Fenton reaction cocurring. HORAC values ranged between 3.0-13.6 μmole CAE/g dw. There was a significant difference found within the different A. bisporus mushrooms. […]

Data set [2] is described as follows: Hydrophilic ORACFL assay (ORAChydro). The class given is biochemical. To be noted: pure ERG. From the text: The lipophilic ORACFL assay (ORAClipo) was based on a previous reported method. Hydrophilic ORACFL assay (ORAChydro) was based on a previous reported method. All data was expressed as micromoles of Trolox equivalents (TE) per gram of dry weight (μmol TE/g dw). The freeze-dried forms of the mushrooms were used for testing and the data was reported as dry weight. When reporting amount per serving, the data was converted to a fresh weight basis according to the dry weight of the fresh mushroom samples. For each analysis, triplicate extractions were performed from one crop and used for analysis. ORACtotal was determined by calculating the sum of ORAClipo and ORAChydro results.

Consider `C[N+](C)(C)[C@@H](Cc1c[nH]c(=S)[nH]1)C(=O)[O-]` [Ergo, L-ergothioneine], for which the “HORAC value of ERG” value in data set [1] is 231 μmole CAE/g. Also, the “ORAChydro value of ERG” value in data set [2] was 6,440 μmole TE/g.
